Measurements: patent publication US20170050957A1, “4-AMINO-6-(HETEROCYCLIC)PICOLINATES AND 6-AMINO-2-(HETEROCYCLIC)PYRIMIDINE-4-CARBOXYLATES AND THEIR USE AS HERBICIDES” (Dow AgroSciences LLC, priority 2013, published 2017)
Where two headings read alike, the source gives them in different places.

Tests used:
Format in all cases: in vivo
[1] = tested on: barnyardgrass (Echinochloa crus-galli); experiment: Post-emergent Test I herbicidal activity; conditions: 3.96 Kg ai/ha
Experimental: (§1) Post-emergent Test I Seeds test species were obtained from commercial suppliers and planted into a 5″-round pot containing soil-less media mix (metro-mix 360®, Sun Gro Horticulture). Postemergence treatments were planted 8-12 days prior to application and cultured in a greenhouse equipped with supplemental light sources to provide a 16 h photoperiod at 24-29° C. All pots were surface irrigated. Approximately 10 milligrams (mg) of each compound were dissolved in 1.3 mL acetone-DMSO (97:3, v/v) and diluted with 4.1 mL water-isopropanol-crop oil concentrate (78:20:2, v/v/v) containing 0.02% Triton X-155. Treatments were serial diluted with the above formulation solvent to provide 1.85, 0.926, 0.462 and 0.231 mg/mL of test compound delivered in 2.7 mL/pot (roughly equivalent to 4.0, 2.0, 1.0, and 0.5 kg/ha, respectively). Formulated compounds were applied using a DeVilbiss® compressed air sprayer at 2-4 psi. Following treatment, pots were returned to the greenhouse for the duration of the experiment. All pots were sub-irrigated as need to provide optimum growing conditions. All pots were fertilized one time per week by subirrigating with Peters Peat-Lite Special® fertilizer (20-10-20). Phytotoxicity ratings were obtained 10 days after treatment postemergence applications. All evaluations were made visually on a scale of 0 to 100 where 0 represents no activity and 100 represents complete plant death. Visual assessments of plant injury were made based on growth reduction, discoloration, leaf deformity and necrosis

wild oats (Avena fatua) = experiment: Post-emergent Test I herbicidal activity; conditions: 3.96 Kg ai/ha
Experimental: as §1

[2] = tested on: giant foxtail (Setaria faberi); experiment: Post-emergent Test I herbicidal activity; conditions: 3.96 Kg ai/ha
Experimental: as §1

[3] = tested on: sunflower (Helianthus annuus); experiment: Post-emergent Test I herbicidal activity; conditions: 3.96 Kg ai/ha
Experimental: as §1

[4] = tested on: Key Grass and Sedge Weeds as well as Grass Crops; experiment: Post-emergent Test II herbicidal activity (Table 16); conditions: post-emergence, 336 h, 14 d; for pest or weed control at 35 g/ha: 35 g ai/ha; for pest or weed control at 70 g/ha: 70 g ai/ha; for pest or weed control at 140 g/ha: 140 g ai/ha
Procedure, shortened: (§2)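 Post-emergence spray; seedlings 7-21 d old, 1st-2nd true leaf; 187 L/ha; serial rates 1×-1/16×; solvent blank controls; subirrigated; visual % injury at 14 d.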

[5] = tested on: Key Broadleaf Weed and Crop Species; experiment: Post-emergent Test II herbicidal activity (Table 15); conditions: post-emergence, 336 h, 14 d; for pest or weed control at 35 g/ha: 35 g ai/ha; for pest or weed control at 70 g/ha: 70 g ai/ha; for pest or weed control at 140 g/ha: 140 g ai/ha
Procedure, shortened: as §2

[6] = Cyperus esculentus, yellow nutsedge (Cyperus esculentus), read-out: Visual Growth Reduction (%) 14 Days After Application, CYPES
[7] = Echinochloa crus-galli, barnyardgrass (Echinochloa crus-galli), read-out: Visual Growth Reduction (%) 14 Days After Application, ECHCG
[8] = Oryza sativa, rice (Oryza sativa), read-out: Visual Growth Reduction (%) 14 Days After Application, ORYSA
[9] = Setaria faberi, giant foxtail (Setaria faberi), read-out: Visual Growth Reduction (%) 14 Days After Application, SETFA
[10] = Triticum aestivum, wheat, spring (Triticum aestivum), read-out: Visual Growth Reduction (%) 14 Days After Application, TRZAS
[11] = Zea mays, maize, corn (Zea mays), read-out: Visual Growth Reduction (%) 14 Days After Application, ZEAMX
[12] = Abutilon theophrasti, velvetleaf (Abutilon theophrasti), read-out: Visual Growth Reduction (%) 14 Days After Application, ABUTH
[13] = Amaranthus retroflexus, redroot pigweed (Amaranthus retroflexus), read-out: Visual Growth Reduction (%) 14 Days After Application, AMARE
[14] = Brassica napus, oilseed rape, canola (Brassica napus), read-out: Visual Growth Reduction (%) 14 Days After Application, BRSNN
[15] = Chenopodium album, lambsquarters (Chenopodium album), read-out: Visual Growth Reduction (%) 14 Days After Application, CHEAL
[16] = Euphorbia heterophylla, wild poinsettia (Euphorbia heterophylla), read-out: Visual Growth Reduction (%) 14 Days After Application, EPHHL
[17] = Helianthus annuus, sunflower (Helianthus annuus), read-out: Visual Growth Reduction (%) 14 Days After Application, HELAN

With `COC(=O)c1nc(-c2ccc3ccn(C)c3c2)c(F)c(N)c1Cl` [Compound 1.10] the “Visual Growth Reduction (%) 10 Days After Application ECHCG” value [1] was “G (0-29)”, the “Visual Growth Reduction (%) 10 Days After Application AVEFA” value (wild oats (Avena fatua)) was “G (0-29)” and the “Visual Growth Reduction (%) 10 Days After Application SETFA” value [2] was “G (0-29)”. For the same compound, the “Visual Growth Reduction (%) 10 Days After Application HELAN” value [3] was “A (95-100)”, the pest or weed control at 35 g/ha [4, 6] was 0 to 29% and the pest or weed control at 70 g/ha [4, 6] was 0 to 29%. For the same compound, the pest or weed control at 140 g/ha [4, 6] was 0 to 29%, the pest or weed control at 35 g/ha [4, 7] was 0 to 29% and the pest or weed control at 70 g/ha [4, 7] was 0 to 29%. For the same compound, the pest or weed control at 140 g/ha [4, 7] was 0 to 29%, the pest or weed control at 35 g/ha [4, 8] was 0 to 29% and the pest or weed control at 70 g/ha [4, 8] was 0 to 29%. For the same compound, the pest or weed control at 140 g/ha [4, 8] was 0 to 29%, the pest or weed control at 35 g/ha [4, 9] was 0 to 29% and the pest or weed control at 70 g/ha [4, 9] was 0 to 29%. For the same compound, the pest or weed control at 140 g/ha [4, 9] was 0 to 29%, the pest or weed control at 35 g/ha [4, 10] was 0 to 29% and the pest or weed control at 70 g/ha [4, 10] was 0 to 29%. For the same compound, the pest or weed control at 140 g/ha [4, 10] was 0 to 29%, the pest or weed control at 35 g/ha [4, 11] was 0 to 29% and the pest or weed control at 70 g/ha [4, 11] was 0 to 29%. It also gave a pest or weed control at 140 g/ha [4, 11] of 0 to 29%, a pest or weed control at 35 g/ha [5, 12] of 0 to 29% and a pest or weed control at 70 g/ha [5, 12] of 0 to 29%. For the same compound, the pest or weed control at 140 g/ha [5, 12] was 0 to 29%, the pest or weed control at 35 g/ha [5, 13] was 0 to 29% and the pest or weed control at 70 g/ha [5, 13] was 85 to 94%. The pest or weed control at 140 g/ha [5, 13] was 95 to 100%, the pest or weed control at 35 g/ha [5, 14] was 0 to 29% and the pest or weed control at 70 g/ha [5, 14] was 0 to 29%. It also gave a pest or weed control at 140 g/ha [5, 14] of 0 to 29%, a pest or weed control at 35 g/ha [5, 15] of 95 to 100% and a pest or weed control at 70 g/ha [5, 15] of 95 to 100%. It also gave a pest or weed control at 140 g/ha [5, 15] of 95 to 100%, a pest or weed control at 35 g/ha [5, 16] of 0 to 29% and a pest or weed control at 70 g/ha [5, 16] of 0 to 29%. For the same compound, the pest or weed control at 140 g/ha [5, 16] was 0 to 29%, the pest or weed control at 35 g/ha [5, 17] was 0 to 29% and the pest or weed control at 70 g/ha [5, 17] was 0 to 29%. It also gave a pest or weed control at 140 g/ha [5, 17] of 45 to 59%.
